Values of other authors in US8617286B2, “Method for increasing crop yield” (priority 2010, dated 2013).

System: nitrification of ammonia nitrogen into nitrate
Conditions: general statement, no test described

## N#CN=C(N)N [DCD, dicyandiamide]
  slowing of nitrification of ammonia nitrogen into nitrate: about 80%
